TGI data for 8 molecules are collected here from PubChem BioAssay (NCI).

SMILES strings stand for the structures.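 Step 1: Grow cells in 96-well plates. Step 2: Expose to compound for 48 hours at 5 concentrations. Step 3: Interpolate endpoints linearly; if unreached, use highest concentration. TGI denotes the concentration required for complete inhibition of growth.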 Some results are limits rather than exact numbers.

Test systems include ACHN renal; OVCAR-3 ovarian; SNB-75 CNS; UO-31 renal; UACC-62 melanoma; OVCAR-8 ovarian; CCRF-CEM leukemia; A498 renal; COLO 205 colon; A549 NSCLC; LOX IMVI melanoma; NCI-H522 lung; 786-0 renal; MALME-3M melanoma; SF-295 CNS; NCI/ADR-RES ovarian; NCI-H226 lung; HCT-15 colon; MDA-MB-435.
Experiment in all cases: DTP human tumour cell line panel, 48 h

Regarding `Cc1cc(OC(=O)c2c(C)cc(OC(=O)c3c(C)cc(O)cc3O)cc2O)cc(O)c1C(=O)O`, the TGI with ACHN renal, in the experiment with OVCAR-3 ovarian, in the experiment with SNB-75 CNS, with UO-31 renal, in the experiment on UACC-62 melanoma and in the experiment with OVCAR-8 ovarian was over 100 µM in each case. Besides, the TGI in the experiment on CCRF-CEM leukemia, in the experiment with A498 renal, in the experiment with COLO 205 colon, with A549 NSCLC, in the experiment with LOX IMVI melanoma and in the experiment on NCI-H522 lung was over 100 µM throughout. Moreover, the TGI in the experiment with 786-0 renal, with MALME-3M melanoma and in the experiment on SF-295 CNS was over 100 µM each time.
`O=c1[nH]nc(Cc2ccccc2)n1C1CC1`: the TGI in the experiment with ACHN renal, in the experiment on OVCAR-3 ovarian, in the experiment on SNB-75 CNS, in the experiment with UO-31 renal, in the experiment with UACC-62 melanoma and in the experiment on NCI/ADR-RES ovarian was over 100 µM in each case. Also, the TGI with OVCAR-8 ovarian, with CCRF-CEM leukemia, with A498 renal, in the experiment on NCI-H226 lung, with COLO 205 colon and with A549 NSCLC was over 100 µM throughout. Further, the TGI with HCT-15 colon, with LOX IMVI melanoma, in the experiment on NCI-H522 lung, with 786-0 renal, with MALME-3M melanoma and in the experiment on MDA-MB-435 was over 100 µM each time. The TGI in the experiment with SF-295 CNS is over 100 µM.
Turning to `O=C(NN1C(=O)C(Cl)C1c1c(O)ccc2ccccc12)c1ccccc1O` (configuration not stated), the TGI with ACHN renal, in the experiment with OVCAR-3 ovarian, in the experiment on SNB-75 CNS, with UO-31 renal, in the experiment on UACC-62 melanoma and with OVCAR-8 ovarian was over 100 µM throughout. Also, the TGI with CCRF-CEM leukemia, with A498 renal, with NCI-H226 lung, in the experiment with A549 NSCLC, in the experiment on HCT-15 colon and in the experiment on LOX IMVI melanoma was over 100 µM throughout. Moreover, the TGI with NCI-H522 lung, with 786-0 renal, in the experiment on MALME-3M melanoma and in the experiment with SF-295 CNS was over 100 µM each time.
Take `C/C(CC(=O)Nc1cccc(Cl)c1C)=N\N=C(N)N`: the TGI in the experiment on ACHN renal, with OVCAR-3 ovarian, in the experiment with SNB-75 CNS, in the experiment with UO-31 renal, in the experiment on UACC-62 melanoma and in the experiment on OVCAR-8 ovarian was over 100 µM each time. Also, the TGI in the experiment with CCRF-CEM leukemia, with A498 renal, with NCI-H226 lung, with COLO 205 colon, with A549 NSCLC and in the experiment on HCT-15 colon was over 100 µM throughout. Also, the TGI with LOX IMVI melanoma, in the experiment on NCI-H522 lung, with 786-0 renal, in the experiment with MALME-3M melanoma and in the experiment with SF-295 CNS was over 100 µM each time.
`CCN(CCCl)c1cc(CN(C)C)cc(NC(=O)c2cc(C(=O)Nc3cc(CN(C)C)cc(N(CC)CCCl)c3)n(C)n2)c1`: the TGI was found to be 0.749 µM in the experiment on ACHN renal; 2.55 µM in the experiment with SNB-75 CNS; 7.42 µM in the experiment on UO-31 renal; 2.36 µM with UACC-62 melanoma; 32.3 µM in the experiment with NCI/ADR-RES ovarian; 1.13 µM in the experiment on OVCAR-8 ovarian. In addition, the TGI amounted to 0.299 µM with CCRF-CEM leukemia; 4.41 µM in the experiment on A498 renal; 4.16 µM with NCI-H226 lung; 2.05 µM in the experiment on COLO 205 colon; 1.8 µM with A549 NSCLC; 10.5 µM in the experiment with HCT-15 colon. The TGI was 0.26 µM with LOX IMVI melanoma; 0.384 µM in the experiment on NCI-H522 lung; 0.261 µM in the experiment with 786-0 renal; 2.86 µM in the experiment on MALME-3M melanoma; 1.2 µM with MDA-MB-435; 2.24 µM in the experiment with SF-295 CNS.
In the case of `O/N=C1\CSc2ccccc2C1`, the TGI in the experiment with ACHN renal, with OVCAR-3 ovarian, with UO-31 renal, in the experiment with UACC-62 melanoma, in the experiment on NCI/ADR-RES ovarian and in the experiment on OVCAR-8 ovarian was over 100 µM throughout. Moreover, the TGI with CCRF-CEM leukemia, in the experiment on A498 renal, with NCI-H226 lung, in the experiment with COLO 205 colon, in the experiment on A549 NSCLC and in the experiment on HCT-15 colon was over 100 µM throughout. The TGI with LOX IMVI melanoma, in the experiment on NCI-H522 lung, in the experiment on 786-0 renal, in the experiment with MALME-3M melanoma, in the experiment on MDA-MB-435 and in the experiment on SF-295 CNS was over 100 µM each time.
In the case of `C1=C(c2ccccc2)C(OC2Oc3ccccc3C=C2c2ccccc2)Oc2ccccc21` (configuration not stated), the TGI in the experiment with ACHN renal, in the experiment on OVCAR-3 ovarian, in the experiment with SNB-75 CNS, with UO-31 renal, in the experiment with UACC-62 melanoma and in the experiment with OVCAR-8 ovarian was over 100 µM throughout. The TGI in the experiment on CCRF-CEM leukemia, with A498 renal, in the experiment on NCI-H226 lung, in the experiment on COLO 205 colon, in the experiment with A549 NSCLC and in the experiment on HCT-15 colon was over 100 µM each time. For the same molecule, the TGI with LOX IMVI melanoma, with NCI-H522 lung, in the experiment with 786-0 renal, in the experiment with MALME-3M melanoma and in the experiment with SF-295 CNS was over 100 µM in each case.
As to `COc1cccc2c1[C@H]1OC(=O)NC1CCCCC2` (some centres not stated), the TGI in the experiment on ACHN renal, in the experiment on OVCAR-3 ovarian, with SNB-75 CNS, in the experiment on UO-31 renal, with UACC-62 melanoma and in the experiment with OVCAR-8 ovarian was over 100 µM in each case. Besides, the TGI in the experiment with CCRF-CEM leukemia, in the experiment with A498 renal, with NCI-H226 lung, in the experiment with COLO 205 colon, in the experiment on A549 NSCLC and in the experiment on HCT-15 colon was over 100 µM in each case. The TGI with LOX IMVI melanoma, in the experiment with NCI-H522 lung, with 786-0 renal, with MALME-3M melanoma and in the experiment with SF-295 CNS was over 100 µM throughout.

By TGI is commonly meant the concentration giving total growth inhibition.
